Reference: ChEMBL document CHEMBL5260817, “Polyamine-based analogs and conjugates as antikinetoplastid agents” (Eur J Med Chem, 2017)

Key:
[1] = Inhibition of Trypanosoma brucei rhodesiense TryR
Trypanosoma brucei [2] = assay: Antiprotozoal activity against Trypanosoma brucei clone 427-221a; assay type: functional, organism-based
HL-60 = assay: Anticancer activity against human HL-60 cells assessed as cell growth inhibition by trypan blue staining based assay; assay type: functional
Leishmania major = assay: Antiprotozoal activity against Leishmania major amastigotes; assay type: functional, organism-based
[3] = Inhibition of TryR (unknown origin); assay type: functional
[4] = test system: Trypanosoma brucei rhodesiense; assay: Antiprotozoal activity against Trypanosoma brucei rhodesiense STIB900 strain; assay type: functional, organism-based
L6 = assay: Anticancer activity against rat L6 cells assessed as cell growth inhibition; assay type: functional, cell-based
[5] = Inhibition of Trypanosoma brucei MetRS in presence of ATP
Trypanosoma brucei [6] = assay: Trypanocidal activity against Trypanosoma brucei trypomastigotes; assay type: functional, organism-based
[7] = Anticancer activity against human CRL-8155 cells assessed as cell growth inhibition; assay type: functional, cell-based; settings: CRL8155
[8] = Half life in BALB/c mouse plasma infected with Trypanosoma brucei 427 strain at 25 mg/kg/day, sc measured after 3 days; assay type: ADME, organism-based; settings: time 3 day
[9] = test system: Trypanosoma brucei brucei; assay: Antiprotozoal activity against Trypanosoma brucei brucei Lab 110 EATRO strain; assay type: functional, organism-based
Leishmania donovani = assay: Antiprotozoal activity against Leishmania donovani promastigote measured after 72 hrs by LDH assay; assay type: functional, organism-based
Trypanothione reductase = Trypanothione reductase (Trypanosoma brucei brucei, UniProt P39051); assay: Inhibition of Trypanosoma brucei TryR
Sequence of Trypanothione reductase (P39051 whole entry): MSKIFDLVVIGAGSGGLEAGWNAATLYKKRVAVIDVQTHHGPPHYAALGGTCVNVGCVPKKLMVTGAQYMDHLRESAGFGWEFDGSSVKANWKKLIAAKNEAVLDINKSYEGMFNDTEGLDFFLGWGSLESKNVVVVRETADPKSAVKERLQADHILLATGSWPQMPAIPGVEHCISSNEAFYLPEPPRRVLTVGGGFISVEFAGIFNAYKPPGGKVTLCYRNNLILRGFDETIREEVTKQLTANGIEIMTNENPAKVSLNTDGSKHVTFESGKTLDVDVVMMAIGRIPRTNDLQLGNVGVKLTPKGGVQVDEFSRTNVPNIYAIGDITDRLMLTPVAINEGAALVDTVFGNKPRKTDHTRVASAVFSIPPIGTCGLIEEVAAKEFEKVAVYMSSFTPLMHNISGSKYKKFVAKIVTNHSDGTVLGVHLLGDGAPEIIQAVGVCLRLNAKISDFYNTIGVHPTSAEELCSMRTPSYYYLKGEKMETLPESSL

Trypanosoma brucei [10] = assay: Trypanocidal activity against Trypanosoma brucei; assay type: functional, organism-based

## C[N+](C)(CCCNc1cc(Cl)ccc1Sc1ccccc1)Cc1ccc(Cl)c(Cl)c1
[1]
  IC50: 5 µM

## COc1ccc2nc3cc(Cl)ccc3c(NCCCN(C)CCCNc3c4ccc(Cl)cc4nc4ccc(OC)cc34)c2c1
Trypanosoma brucei [2]
  IC50: 0.001 µM
HL-60
  IC50: 1 µM
Leishmania major
  IC50: 6 µM

## C[N+](C)(CCCNc1cc(Cl)ccc1Sc1ccccc1)Cc1ccc([N+](=O)[O-])o1
[3]
  IC50: 9 µM
[4]
  IC50: 0.6 µM
L6
  IC50: > 170 µM

## Oc1cc(NCCCNCc2cc(Cl)cc(Cl)c2)nc2ccccc12
[5]
  IC50: 0.008 µM
Trypanosoma brucei [6]
  IC50: 0.004 µM
[7]
  IC50: > 20 µM
[8]
  half-life: 1 h

## N=C(NC1CCCCCC1)c1ccc(N2CCN(c3ccc(C(=N)NC4CCCCCC4)cc3)CC2)cc1
[9]
  IC50: 0.018 µM
Leishmania donovani
  IC50: 4.76 µM

## Clc1ccc2c(c1)N(CCCN1CCN(CCCc3ccccc3)CC1)c1ccccc1S2
Trypanothione reductase
  IC50: 0.75 µM
Trypanosoma brucei [10]
  IC50: 0.77 µM
